Results: PMC7701510, “Identification of HN252 as a potent inhibitor of protein phosphatase PPM1B” (Journal of Cellular and Molecular Medicine, 2020)

Key:
[1] = target: T1, PPM1F (Homo sapiens, UniProt P49593); experiment: pNPP hydrolysis phosphatase assay (selectivity panel); assay type: biochemical; conditions: pNPP as substrate
T1 sequence (P49593 1-454): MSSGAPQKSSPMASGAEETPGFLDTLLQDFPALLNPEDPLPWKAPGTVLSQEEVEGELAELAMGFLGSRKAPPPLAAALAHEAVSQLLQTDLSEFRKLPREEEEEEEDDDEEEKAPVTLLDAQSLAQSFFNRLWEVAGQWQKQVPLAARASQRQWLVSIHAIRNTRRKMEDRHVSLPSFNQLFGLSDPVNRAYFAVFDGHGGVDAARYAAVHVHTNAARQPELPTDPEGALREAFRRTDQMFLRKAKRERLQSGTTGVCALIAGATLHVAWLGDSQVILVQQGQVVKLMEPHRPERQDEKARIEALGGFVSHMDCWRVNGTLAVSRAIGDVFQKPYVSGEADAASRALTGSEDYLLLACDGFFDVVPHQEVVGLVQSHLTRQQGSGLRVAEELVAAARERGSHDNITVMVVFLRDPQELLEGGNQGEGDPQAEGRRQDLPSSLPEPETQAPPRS

[2] = target: T2, STEP (Homo sapiens, UniProt P54829); experiment: as above; assay type: biochemical; conditions: pNPP as substrate
T2 sequence (P54829 1-565): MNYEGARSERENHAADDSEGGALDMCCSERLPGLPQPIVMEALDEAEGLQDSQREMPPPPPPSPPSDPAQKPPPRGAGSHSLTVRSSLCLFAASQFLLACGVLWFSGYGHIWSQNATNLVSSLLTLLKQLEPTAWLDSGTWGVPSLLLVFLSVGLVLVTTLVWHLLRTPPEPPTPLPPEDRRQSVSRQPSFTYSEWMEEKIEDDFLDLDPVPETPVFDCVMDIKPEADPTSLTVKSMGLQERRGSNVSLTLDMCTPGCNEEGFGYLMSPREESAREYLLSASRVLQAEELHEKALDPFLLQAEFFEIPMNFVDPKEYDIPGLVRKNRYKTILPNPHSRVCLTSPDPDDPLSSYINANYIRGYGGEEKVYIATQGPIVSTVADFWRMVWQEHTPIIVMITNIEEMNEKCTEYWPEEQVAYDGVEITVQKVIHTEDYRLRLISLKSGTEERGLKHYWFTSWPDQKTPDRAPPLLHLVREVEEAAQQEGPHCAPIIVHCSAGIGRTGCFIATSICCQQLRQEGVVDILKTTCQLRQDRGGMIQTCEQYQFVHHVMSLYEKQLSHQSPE

[3] = target: T3, SSH1 (Homo sapiens, UniProt Q8WYL5); experiment: as above; assay type: biochemical; conditions: pNPP as substrate
T3 sequence (Q8WYL5 1-1049): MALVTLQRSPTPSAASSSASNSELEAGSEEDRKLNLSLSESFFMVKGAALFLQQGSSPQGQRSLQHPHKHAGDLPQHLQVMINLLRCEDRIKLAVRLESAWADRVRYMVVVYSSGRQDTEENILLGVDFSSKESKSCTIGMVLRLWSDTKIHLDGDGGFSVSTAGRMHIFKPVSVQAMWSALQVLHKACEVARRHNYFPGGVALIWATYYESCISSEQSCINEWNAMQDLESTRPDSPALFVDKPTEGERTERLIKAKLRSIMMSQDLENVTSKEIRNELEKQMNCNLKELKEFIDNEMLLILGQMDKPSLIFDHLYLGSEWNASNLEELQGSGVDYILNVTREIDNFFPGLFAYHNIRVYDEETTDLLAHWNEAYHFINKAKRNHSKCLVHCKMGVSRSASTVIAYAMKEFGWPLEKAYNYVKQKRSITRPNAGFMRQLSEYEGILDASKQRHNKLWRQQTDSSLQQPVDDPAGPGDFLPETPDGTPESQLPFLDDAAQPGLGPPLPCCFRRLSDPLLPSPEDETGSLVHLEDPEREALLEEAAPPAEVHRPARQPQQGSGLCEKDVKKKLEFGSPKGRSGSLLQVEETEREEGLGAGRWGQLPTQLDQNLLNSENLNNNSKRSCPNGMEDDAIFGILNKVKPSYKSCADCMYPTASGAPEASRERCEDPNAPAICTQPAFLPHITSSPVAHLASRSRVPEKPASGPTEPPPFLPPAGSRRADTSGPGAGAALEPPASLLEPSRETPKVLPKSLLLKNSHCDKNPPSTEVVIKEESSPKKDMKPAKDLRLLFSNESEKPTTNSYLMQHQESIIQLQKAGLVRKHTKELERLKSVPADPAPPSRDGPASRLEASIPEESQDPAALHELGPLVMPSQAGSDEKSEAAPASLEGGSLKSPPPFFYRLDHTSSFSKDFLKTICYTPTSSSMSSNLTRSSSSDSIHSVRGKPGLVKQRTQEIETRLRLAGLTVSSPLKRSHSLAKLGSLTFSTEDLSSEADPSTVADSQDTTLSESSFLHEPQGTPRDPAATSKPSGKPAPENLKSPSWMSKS
Method: The kinetic assays of PPM1B were carried out at 37°C in 0.1 M acetic acid buffer (50 mM Tris, 40 mM Mn^2+, pH 7.0). The p‐nitrophenyl phosphate (pNPP, Sigma) was used as the substrate which could be conveniently measured at 405 nm. Reactions were started by addition of pNPP to a reaction mixture containing PPM1B (0.4 μM PPM1B, final concentration) and various concentrations of HN252 and stopped by addition of 0.5 M EDTA (pH 10.0) after an appropriate time. The Km value of PPM1B towards pNPP hydrolysis (3.6 mM for pNPP) was used to determine the IC50. The IC50 values, the inhibition constant Ki and inhibition pattern were evaluated as previously described. ^18 The kinetic assays of HN252 towards to other protein phosphatases were carried out as previously described. ^19

[4] = tested on: HL7702 cells; experiment: Western blot of protein phosphorylation after HN252 treatment; assay type: cell-based
Method: HL7702, COS7, PC‐3 and HCT116 cells were purchased from the Cell Bank of the Shanghai Institute for Biological Sciences, Chinese Academy of Science. HCT116, COS7 and PC3 cells were cultured in DMEM (Gibco); HL7702 cells were cultured in RPMI 1640 medium (Gibco). All media were supplemented with 10% foetal bovine serum (Biological Industries), 100 IU penicillin and […] streptomycin at 37°C in a humidified incubator with 5% CO2.

[5] = tested on: topoisomerases; experiment: Topoisomerase inhibition in vitro; assay type: biochemical; conditions: data not shown
[6] = Cytotoxicity; assay type: cell-based; conditions: low micromolar range; data not shown
[7] = tested on: HL7702 cells with PPM1B shRNA; experiment: Western blot of protein phosphorylation in PPM1B knockdown cells with HN252; conditions: HN252 5 μM, 2 h, at 30 h after transfection
Method: Cells were lysed in lysis buffer (50 mM Tris‐HCl, 150 mM NaCl, 0.1% SDS, 1% NP‐40, 0.5% deoxycholate, pH 7.4), supplemented with protease inhibitor (Roche) and phosphatase inhibitor cocktails (Roche). Protein samples were separated by SDS‐PAGE and wet‐transferred to PVDF membranes (Millipore). The membrane was blocked for 1 h in 5% BSA in TBST at room temperature and probed with the appropriate primary antibodies and with an HRP‐conjugated secondary antibody.

[8] = immunoblotting, HN252 5 μM, 2 h

Nc1cc(-c2ccc(-c3ccc(O)c(O)c3)cc2)ccc1C(=O)O [HN252]
IC50 [1]: 30.6 ± 4.05 µM
IC50 [2]: 91.1 ± 10.1 µM
IC50 [3]: 54.6 ± 13 µM
phosphorylation of JNK [4, 8]: up‐regulated
phosphorylation of β-catenin [4, 8]: enhanced phosphorylation
phosphorylation of AMPKα, CDK2 and p38 ([4]; increasing concentration of HN252, 2 h): dramatically increased
inhibition against topoisomerases [5]: no inhibition
cytotoxicity [6]: no detectable cytotoxicity
effect on phosphorylation of AMPKα, CDK2 and p38 [7]: mild effect
